Results as given in US12233099B2, “Composition for promoting myogenesis, containing processed ginseng extract” (GREEN CROSS WELLBEING CORPORATION, priority 2018, dated 2025).

What was measured:
Assay type in all cases: cell-based, mouse
[1] = system: phosphorylated Smad2 (pSmad2); assay: Smad2 phosphorylation in myostatin-treated myotubes (Western blotting); conditions: myotubes treated with myostatin; extract 0, 10, 30, and 100 μg/ml
Protocol: The myotubes differentiated by the same method as in Test Example 5-2 were treated with myostatin and the processed ginseng extract of Example 2 to secure cells, and the cells were subjected to Western blotting. The treatment concentrations of the processed ginseng extract of Example 2 was 0, 10, 30, and 100 μg/ml. A lysis buffer was added to the secured cells to lyse cells, and then centrifugation was used to secure proteins of the supernatant. The secured proteins of the supernatant were separated through sodium dodecyl sulfate polyacrylamide gel electrophoresis (SDS-PAGE) and transferred to a polyvinylidene fluoride (PVDF) membrane. The membrane was blocked by a blocking solution, treated with a primary antibody in order to determine the amounts of Smad2 and phosphorylated Smad2 (pSmad2), and then treated with a secondary antibody to the primary antibody. Then, enhanced chemiluminescence (ECL, Amersham) was used to examine protein expression.

MyoD = MyoD expression in myostatin-treated myotubes (Western blotting); conditions: extract 30 μg/ml
Protocol: (§1) The myotubes differentiated by the same method as in Test Example 5-2 were treated with myostatin and the processed ginseng extract of Example 2 to secure cells. The treatment concentrations of the processed ginseng extract of Example 2 was 30 μg/ml. The secured cells were subjected to Western blotting using antibodies corresponding to MyoD and MAFbx by the same method as in Test Example 6-1, and the results are shown in FIG. 8.

[2] = system: myotubes differentiated from C2C12; assay: Myostatin-induced myoatrophy cell model (myotube breadth)
Protocol: After myotubes were differentiated by the same method as in the induction of myotube differentiation of Test Example 1, the cells were added in DMEM not containing FBS, and cultured for 3 hours. After culturing, the cells were treated with the myogenesis inhibitor myostatin (MSTN) at different concentrations for 24 hours, and the change in breadth of myotubes was measured in order to investigate whether myoatrophy was induced. The change in breadth of myotubes was measured by the same method as in Test Example 4, and after the immunofluorescent staining, images of myotubes were observed using the fluorescent substance attached to MHC through a microscope, and the Image J program was used to determine the breadth of myotubes.
To investigate the myoatrophy inhibitory effect of the processed ginseng extracts of the present invention, myoatrophy was induced by the same method as the construction method of myoatrophy animal cell models in Test Example 5-1, and then the change in myotube breadth was observed. The myotubes were treated with 0.4 μg/0 myostatin (MSTN) and 30 μg/0 the processed ginseng extract of Example 2 alone or in combination, and the myotubes not treated with myostatin and the processed ginseng extract of Example 2 were used as a control group.

MAFbx = MAFbx expression in myostatin-treated myotubes (Western blotting); conditions: extract 30 μg/ml
Protocol: as §1

myostatin: myogenesis inhibitor protein of the TGF-β group, used to induce myotube atrophy
Smad2 phosphorylation (pSmad2) [1]: increased | MyoD expression (compared with GAPDH) (MyoD): reduction in MyoD expression | myotube breadth compared with the control group, treatment alone ([2]; 30 μg/0 Example 2 extract or 0.4 μg/0 myostatin alone): reduced | myostatin concentration giving greatest reduction in breadth of myotubes ([2]; 24 hours): 0.4 μg/0 | breadth of myotubes compared with myotubes not treated with myostatin ([2]; myostatin at different concentrations for 24 hours): reduced in breadth of myotubes with the increase of the treatment concentration | MAFbx expression (compared with GAPDH) (MAFbx): increase in MAFbx expression
